As a reminder, the Ki is a measure of affinity in units of concentration, obtained from inhibition or displacement.

T1 sequence (P29274 whole entry): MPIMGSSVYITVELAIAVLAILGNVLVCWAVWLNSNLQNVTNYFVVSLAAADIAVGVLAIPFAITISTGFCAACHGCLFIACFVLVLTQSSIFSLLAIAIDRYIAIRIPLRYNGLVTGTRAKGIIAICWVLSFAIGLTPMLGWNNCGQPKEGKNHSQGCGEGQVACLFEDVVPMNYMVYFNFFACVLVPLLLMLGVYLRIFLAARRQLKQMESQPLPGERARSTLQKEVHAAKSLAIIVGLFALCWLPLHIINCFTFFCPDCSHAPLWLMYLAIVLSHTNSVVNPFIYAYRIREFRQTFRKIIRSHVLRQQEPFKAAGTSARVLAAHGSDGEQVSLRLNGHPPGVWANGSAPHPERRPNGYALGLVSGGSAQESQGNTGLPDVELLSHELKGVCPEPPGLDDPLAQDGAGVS

The assay concerns the target T1, human A2a receptor (Homo sapiens, UniProt P29274).
T1 construct: purchased Perkin-Elmer RBHA2AM400UA; host or cells: HEK293 cells, used as a membrane preparation
The assay can be described thus: A2a receptor competition binding assay (Scintillation Proximity). To be noted: membranes from HEK293 cells expressing human A2a receptor; 0.5 nM tritiated ligand; Cheng-Prusoff; read-out: A2a Ki. The procedure:
Binding affinities of compounds of the invention for the human A2a receptor were determined in a competition binding assay using Scintillation Proximity technology. Thus, 0.3 μg of membranes from HEK293 cells expressing the human A2a receptor were incubated with a compound of the invention at concentrations ranging from 3000 nM to 0.15 nM in a reaction mixture containing also 0.5 nM of a tritiated form of 5-amino-7-[2-phenethyl]-2-(furan-2-yl)-7H-pyrazolo[4,3-e][1,2,4]triazolo[1,5-c]pyrimidine (the tritiated compound) and 100 μg of wheat germ agglutin-coated yttrium silicate SPA beads for one hour at room temperature with agitation. The beads were then allowed to settle to the bottom of the wells for 1 hr, after which the membrane-associated radioactivity was determined by scintillation counting in a TopCount microplate reader. Ki values were determined using the Cheng-Prusoff equation.
Summary of Materials and Methods Used in A2a Activity Determination:
HEK293 cells expressing the human, rat, dog or monkey adenosine 2a receptor (Purchased from Perkin-Elmer #RBHA2AM400UA).
The Tritiated compound was prepared according to published methods.
Wheat germ agglutinin-coated yttrium silicate SPA beads (GE Healthcare #RPNQ0023). Dilute to 25 mg/ml in assay buffer.
Assay Buffer was prepared using Dulbecco's calcium and magnesium free phosphate buffered saline+10 mMMgCl2
Adenosine deaminase from calf intestine, 10 mg/2 ml (Roche #10 102 105 001).
A2a antagonist standard (9-chloro-1-(2-furanyl)-[1,2,4]triazolo1,5-c]quinazolin-5-amine from Tocris Bioscience)
Make eight 1:3 serial dilutions in 100% DMSO from a 3 mM compound stock
Transfer 50 nl of compound into a 384-well OptiPlate (Perkin Elmer).
Typically, final concentrations of compound used in the assay ranged from 3000 nM to 0.152 nM.
Dilute a solution of the Tritiated compound to 1.25 nM in assay buffer. This is a 2.5× solution. The final concentration in the assay is 0.5 nM. Calculate the concentration by counting two 5 μl aliquots.
Use 0.25 ug of membrane/well. Dilute membranes to 9.7 μg/ml in assay buffer. Treat with 20 ug/ml adenosine deaminase (ADA) for 15 minutes at room temperature to degrade endogenous adenosine.
Use 100 μg/well wheat germ agglutinin-coated yttrium silicate SPA beads.
Mix ADA-treated membranes and SPA beads together for 30 min prior to assay.
To the Perkin-Elmer Optiplate-384 containing the compound titration add 20 μl of 2.5× solution of the Tritiated compound and 30 μl of the membrane-bead mixture. Incubate for one hour at room temperature with agitation.
Include total binding (assay buffer+1% DMSO) and non-specific binding (CGS15943, 1 μM) wells.
Allow the beads to settle for one hour.
A curve fitting program (i.e., Prism, Activity Base, Chemcart) is used to determine the EC50. The Ki value is calculated using the Cheng-Prusoff equation. Ki=EC50/(1+(radioligand concentration/Kd))
(SPA uses beads or plates that emit light when radiolabelled molecules are held near them.)
In the case of `COc1cccc2c1nc(N)n1cc(Cc3ccccc3N3CCCCC3)nc21` [Ex-36, 7-methoxy-2-(2-(piperidin-1-yl)benzyl)imidazo[1,2-c]quinazolin-5-amine], the Ki was 2.8 nM.

With `Nc1nc2c(F)cccc2c2nc(Cc3cc(F)ccc3O)cn12` [Ex-37, 2-((5-amino-7-fluoroimidazo[1,2-c]quinazolin-2-yl)methyl)-4-fluorophenol], the Ki was determined as 18 nM.

Turning to `COc1cccc2c1nc(N)n1cc(Cc3cccnc3Cl)nc21` [Ex-38, 2-((2-chloropyridin-3-yl)methyl)-7-methoxyimidazo[1,2-c]quinazolin-5-amine], the inhibition constant (Ki) amounted to 2.3 nM.

As to `COc1cccc2c1nc(N)n1cc(Cc3ccc(N4CCOCC4)nc3)nc21` [Ex-39, 7-methoxy-2-((6-morpholinopyridin-3-yl)methyl)imidazo[1,2-c]quinazolin-5-amine], the Ki was 9.8 nM.

Regarding `COc1cccc2c1nc(N)n1cc(Cc3ccnc(N4CCOCC4)c3)nc21` [Ex-40, 7-methoxy-2-((2-morpholinopyridin-4-yl)methyl)imidazo[1,2-c]quinazolin-5-amine], the Ki turned out to be 10 nM.

`COc1cccc2c1nc(N)n1cc(Cc3ccc(N4CCOCC4)cc3)nc21` [Ex-41, 7-methoxy-2-(4-morpholinobenzyl)imidazo[1,2-c]quinazolin-5-amine]: the Ki was found to be 15 nM.

Consider `COc1cccc2c1nc(N)n1cc(Cc3cccnc3F)nc21` [Ex-42, 2-((2-fluoropyridin-3-yl)methyl)-7-methoxyimidazo[1,2-c]quinazolin-5-amine], for which the Ki worked out at 2.8 nM.

`COc1cccc2c1nc(N)n1cc(Cc3cccnc3N3CCOCC3)nc21` [Ex-43, 7-methoxy-2-((2-morpholinopyridin-3-yl)methyl)imidazo[1,2-c]quinazolin-5-amine]: the inhibitory constant (Ki) stood at 5.2 nM.

With `COc1cccc2c1nc(N)n1cc(Cc3ccc(N4CCN(C(C)=O)CC4)cc3)nc21` [Ex-44, 1-(4-(4-((5-amino-7-methoxyimidazo[1,2-c]quinazolin-2-yl)methyl)phenyl)piperazin-1-yl)ethan-1-one], the Ki came out at 14 nM.

Take `COc1cccc2c1nc(N)n1cc(Cc3ccc(N4CCN(C(C)=O)CC4)nc3)nc21` [Ex-45, 1-(4-(5-((5-amino-7-methoxyimidazo[1,2-c]quinazolin-2-yl)methyl)pyridin-2-yl)piperazin-1-yl)ethan-1-one]: the Ki stood at 4.6 nM.

For `COc1cccc2c1nc(N)n1cc(Cc3ccnc(N4CCN(C(C)=O)CC4)c3)nc21` [Ex-46, 1-(4-(4-((5-amino-7-methoxyimidazo[1,2-c]quinazolin-2-yl)methyl)pyridin-2-yl)piperazin-1-yl)ethan-1-one], the Ki is 7.4 nM.

For the molecule `CC(=O)N1CCc2cc(Cc3cn4c(N)nc5c(F)cccc5c4n3)ccc2C1` [Ex-47, 1-(6-((5-amino-7-fluoroimidazo[1,2-c]quinazolin-2-yl)methyl)-3,4-dihydroisoquinolin-2(1H)-yl)ethan-1-one], the Ki was 5.9 nM.

Turning to `CC(=O)N1CCc2ccc(Cc3cn4c(N)nc5c(F)cccc5c4n3)cc2C1` [Ex-48, 1-(7-((5-amino-7-fluoroimidazo[1,2-c]quinazolin-2-yl)methyl)-3,4-dihydroisoquinolin-2(1H)-yl)ethan-1-one], the Ki is 3 nM.

Consider `COc1cccc2c1nc(N)n1cc(Cc3cccnc3N3CCCC3)nc21` [Ex-49, 7-methoxy-2-((2-(pyrrolidin-1-yl)pyridin-3-yl)methyl)imidazo[1,2-c]quinazolin-5-amine], for which the Ki was 6.2 nM.

With `COc1cccc2c1nc(N)n1cc(Cc3cccnc3N3CCCCC3)nc21` [Ex-50, 7-methoxy-2-((2-(piperidin-1-yl)pyridin-3-yl)methyl)imidazo[1,2-c]quinazolin-5-amine], the Ki worked out at 3.7 nM.

In the case of `COc1cccc2c1nc(N)n1cc(Cc3cccnc3N3CCN(C)CC3)nc21` [Ex-51, 7-methoxy-2-((2-(4-methylpiperazin-1-yl)pyridin-3-yl)methyl)imidazo[1,2-c]quinazolin-5-amine], the Ki turned out to be 23.9 nM.

For `Nc1nc2c(F)cccc2c2nc(Cc3cccc4c3CCNC4)cn12` [Ex-52, 7-fluoro-2-((1,2,3,4-tetrahydroisoquinolin-5-yl)methyl)imidazo-[1,2-c]quinazolin-5-amine], the Ki came to 11 nM.

For the molecule `CC(=O)N1CCc2c(Cc3cn4c(N)nc5c(F)cccc5c4n3)cccc2C1` [Ex-53, 1-(5-((5-amino-7-fluoroimidazo[1,2-c]quinazolin-2-yl)methyl)-3,4-dihydroisoquinolin-2(1H)-yl)ethan-1-one], the Ki is 3.7 nM.

For the molecule `N#Cc1ccc(N2CCc3c(Cc4cn5c(N)nc6c(F)cccc6c5n4)cccc3C2)nc1` [Ex-54, 6-(5-((5-amino-7-fluoroimidazo[1,2-c]quinazolin-2-yl)methyl)-3,4-dihydroisoquinolin-2(1H)-yl)nicotinonitrile], the inhibition constant Ki was found to be 3.8 nM.

For `N#Cc1cccc(CC(=O)N2CCc3c(Cc4cn5c(N)nc6c(F)cccc6c5n4)cccc3C2)c1` [Ex-55, 3-(2-(5-((5-amino-7-fluoroimidazo[1,2-c]quinazolin-2-yl)methyl)-3,4-dihydroisoquinolin-2(1H)-yl)-2-oxoethyl)benzonitrile], the Ki was found to be 5.1 nM.

For the molecule `CCCN1CCc2c(Cc3cn4c(N)nc5c(F)cccc5c4n3)cccc2C1` [Ex-56, 7-fluoro-2-((2-propyl-1,2,3,4-tetrahydroisoquinolin-5-yl)melhyl)imidazo-[1,2-c]quinazolin-5-amine], the Ki is 16 nM.

For the molecule `Nc1nc2c(F)cccc2c2nc(Cc3cccc4c3CCN(CCc3ccccn3)C4)cn12` [Ex-57, 7-fluoro-2-((2-(2-(pyridin-2-yl)ethyl)-1,2,3,4-tetrahydroisoquinolin-5-yl)methyl)imidazo[1,2-c]quinazolin-5-amine], the Ki is 18 nM.

On to `Nc1nc2c(F)cccc2c2nc(Cc3cccc4c3CCN(Cc3ccccn3)C4)cn12` [Ex-58, 7-fluoro-2-((2-(pyridin-2-ylmethyl)-1,2,3,4-tetrahydroisoquinolin-5-yl)methyl)imidazo[1,2-c]quinazolin-5-amine], for which the Ki worked out at 9.9 nM.

For the molecule `COc1cccc2c1nc(N)n1cc(Cc3cccc4c3CCN(C(=O)Cc3ccc(F)c(F)c3)C4)nc21` [Ex-59, 1-(5-((5-amino-7-methoxyimidazo[1,2-c]quinazolin-2-yl)methyl)-3,4-dihydroisoquinolin-2(1H)-yl)-2-(3,4-difluorophenyl)ethan-1-one], the Ki came out at 2.9 nM.

Consider `COc1cccc2c1nc(N)n1cc(Cc3cccc4c3CCN(C(=O)CCC(F)(F)F)C4)nc21` [Ex-60, 1-(5-((5-amino-7-methoxyimidazo[1,2-c]quinazolin-2-yl)methyl)-3,4-dihydroisoquinolin-2(1H)-yl)-4,4,4-trifluorobutan-1-one], for which the Ki was 2 nM.

Consider `Cn1cc(-c2ccc(F)c3nc(N)n4cc(Cc5ccccc5)nc4c23)ccc1=O` [Ex-61, 5-(5-amino-2-benzyl-7-fluoroimidazo[1,2-c]quinazolin-10-yl)-1-methylpyridin-2(1H)-one], for which the inhibition constant Ki came out at 27 nM.

In the case of `COc1cccc2c1nc(N)n1cc(Cc3cccnc3N3CCC(c4ccccc4)CC3)nc21` [Ex-62, 7-methoxy-2-((2-(4-phenylpiperidin-1-yl)pyridin-3-yl)methyl)imidazo[1,2-c]quinazolin-5-amine], the Ki was 2.2 nM.

Take `Nc1nc2c(F)cccc2c2nc(Cc3ccnc(N4CCN(c5nc6ccccc6o5)CC4)c3)cn12` [Ex-63, 2-((2-(4-(benzo[d]oxazol-2-yl)piperazin-1-yl)pyridin-4-yl)methyl)-7-fluoroimidazo[1,2-c]quinazolin-5-amine]: the Ki was 102 nM.

Take `Nc1nc2c(F)cccc2c2nc(Cc3ccc4c(c3)CN(Cc3ccccc3)C4)cn12` [Ex-65, 2-((2-benzylisoindolin-5-yl)methyl)-7-fluoroimidazo[1,2-c]quinazolin-5-amine]: the Ki came to 5.1 nM.

With `COCCOc1ccc(N2CCN(Cc3ccccc3Cc3cn4c(N)nc5c(OC)cccc5c4n3)CC2)cc1` [Ex-66, 7-methoxy-2-(2-((4-(4-(2-methoxyethoxy)phenyl)piperazin-1-yl)methyl)benzyl)imidazo[1,2-c]quinazolin-5-amine], the Ki turned out to be 11.5 nM.

Turning to `COc1cccc2c1nc(N)n1cc(Cc3ccccc3CN3CCN(c4ccccc4)CC3)nc21` [Ex-67], the Ki came out at 2.2 nM.

The values above are taken from patent US11498923B2 (Merck Sharp & Dohme Corp., priority 2017, dated 2022).
